Laboratory results from patent US20230382889A1 (Volastra Therapeutics, Inc., priority 2022, published 2023).
Like-named read-outs stand apart in the source and are kept apart here.

Experiments:
hKIF18A (1-374) = hKIF18A (1-374) (Homo sapiens (Human), UniProt Q8NI77); assay: Inhibition of KIF18A microtubule-dependent ATPase activity (ADP-Glo); type: biochemical; details: 4 nM hKIF18A (1-374)
Procedure, shortened: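 Reaction was started with pre-formed microtubules and ATP (0.2 mg/mL and 2.0 mM in the added mix) and run 60 min at 28 °C. ADP was read by ADP-Glo luminescence, and IC50 came from a four-parameter fit of % inhibition.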

HCC15 cells = assay: Cell viability of KIF18a-sensitive cell lines, HCC15 (Cell Titre-Glo, 7 days); type: cell-based; details: read-out: HCC15 IC50
Protocol: (§1) Cell lines were seeded as follows 24 hours before compound treatment: HCC15 (Korean Cell Line Bank) 600 cell/well, 95 μL of RPMI-1640 media supplemented with 100 units/mL penicillin, 100 units/mL streptomycin and 10% FBS; NIH:OVCAR-3 (ATCC), 1000 cell/well, 95 μL of RPMI-1640 media supplemented with 100 units/mL penicillin, 100 units/mL streptomycin, 0.01 mg/mL bovine insulin, and 20% FBS; JIMT-1 (Addexbio) 1000 cell/well, 95 μL of DMEM media supplemented with 100 units/mL penicillin, 100 units/mL streptomycin, and 10% FBS.
(§2) Test compounds were added to cells in a 20× dilution scheme by adding 5 μL of serially diluted compound to the plate, and the treated cells were incubated for an additional 7 days in a 37° C., 5% CO2 incubator. DMSO was used as the negative control (0% effect), and wells omitting cells were used as the positive control (100% effect). The cells were incubated for seven days, and cell viability determined via the Promega Cell Titre-Glo® Assay kit. Luminescence units were converted to ATP concentrations via an ATP standard curve (10 point, 2-fold dilution from 5 uM). % Inhibition was calculated for each well as: ([max−min]−[test−min])/[max−min]. IC50 values were calculated from concentration vs. % Inhibition data via a four-parameter variable slope model.

JIMT-1 cells = assay: Cell viability of KIF18a-sensitive cell lines, JIMT-1 (Cell Titre-Glo, 7 days); type: cell-based; details: Homo sapiens, read-out: JIMT-1 IC50
Protocol: as §1, §2

NIH:OVCAR-3 cells = assay: Cell viability of KIF18a-sensitive cell lines, NIH:OVCAR-3 (Cell Titre-Glo, 7 days); type: cell-based; details: Homo sapiens, OVCAR-3, 168 h, read-out: NIH:OVCAR3 IC50
Protocol: as §1, §2

[1] = target: KIF18a-microtubule complex (Homo sapiens (Human), UniProt Q8NI77); assay: Binding kinetics to KIF18a-microtubule complex (global progress curve analysis)
Protocol: Compound binding kinetics parameters (kon and koff) were determined by the method of global progress curve analysis (GPCA). […] ADP product levels were determined by the Promega® ADP-Glo assay.

Chain of hKIF18A (1-374) (Q8NI77 1-374): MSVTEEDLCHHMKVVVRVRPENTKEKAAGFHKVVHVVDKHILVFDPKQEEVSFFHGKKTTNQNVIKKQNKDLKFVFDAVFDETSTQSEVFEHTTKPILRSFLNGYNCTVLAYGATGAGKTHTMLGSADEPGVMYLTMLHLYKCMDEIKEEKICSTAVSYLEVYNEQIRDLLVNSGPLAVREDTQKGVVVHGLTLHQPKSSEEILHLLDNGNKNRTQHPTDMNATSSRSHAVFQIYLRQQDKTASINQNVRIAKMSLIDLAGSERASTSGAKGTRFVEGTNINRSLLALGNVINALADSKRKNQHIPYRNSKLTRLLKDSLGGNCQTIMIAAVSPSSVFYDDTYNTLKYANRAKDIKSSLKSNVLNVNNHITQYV
Chain of KIF18a-microtubule complex (Q8NI77 1-374, one chain of several): as the sequence (Q8NI77 1-374) above

| SMILES | IC50 (hKIF18A (1-374)) [µM] | IC50 (HCC15 cells; 168 h, HCC15, 7 days) [µM] | IC50 (JIMT-1 cells; 168 h, JIMT-1, 7 days) [µM] | IC50 (NIH:OVCAR-3 cells; NIH:OVCAR3, 7 days) [µM] | kon (on-rate from binding kinetics assay) ([1]; KIF18A 0.25 nM, up to 24 hr) [M⁻¹ s⁻¹] | koff ([1]; KIF18A 0.25 nM, up to 24 hr, read-out: koff (off-rate from binding kinetics assay) (converted)) [s⁻¹] | Ki ([1]; koff/kon, read-out: KI (determined from binding kinetic assay koff/kon)) [µM] | disc. t1/2 (dissociation half-life ln(2)/koff) ([1]; ln(2)/koff) [h] | IC50 (HCC15 cells; HCC15, 168 h) [µM] | IC50 (JIMT-1 cells; JIMT-1, 168 h) [µM] | IC50 (NIH:OVCAR-3 cells) [µM] |
| --- | --- | --- | --- | --- | --- | --- | --- | --- | --- | --- | --- |
| Cc1cc(-c2cn(-c3ccc(NS(=O)(=O)C4(CO)CC4)cc3N3CCCCC3)nn2)nc(N2CCC(F)(F)CC2)n1 [Compound 91, N-(4-(4-(2-(4,4-difluoropiperidin-1-yl)-6-methylpyrimidin-4-yl)-1H-1,2,3-triazol-1-yl)-3-(piperidin-1-yl)phenyl)-1-(hydroxymethyl)cyclopropane-1-sulfonamide] | 0.036 | 0.029 | 0.035 | 0.04 | – | – | – | – | – | – | – |
| CCS(=O)(=O)Nc1ccc(-n2cc(-c3cc(C)nc(N4CCC(F)(F)CC4)n3)nn2)c(N2CCC3(CC2)CC3)c1 [Compound 106, N-(4-(4-(2-(4,4-difluoropiperidin-1-yl)-6-methylpyrimidin-4-yl)-1H-1,2,3-triazol-1-yl)-3-(6-azaspiro[2.5]octan-6-yl)phenyl)ethanesulfonamide] | 0.032 | 0.018 | 0.024 | 0.025 | – | – | – | – | – | – | – |
| O=S(=O)(CCO)Nc1ccc(-n2cc(-c3ccn(C4CCC(F)(F)CC4)n3)nn2)c(N2CCC3(CCC3)CC2)c1 [Compound 130, N-(4-(4-(1-(4,4-difluorocyclohexyl)-1H-pyrazol-3-yl)-1H-1,2,3-triazol-1-yl)-3-(7-azaspiro[3.5]nonan-7-yl)phenyl)-2-hydroxyethane-1-sulfonamide] | 0.005 | 0.012 | 0.029 | 0.019 | – | – | – | – | – | – | – |
| CS(=O)(=O)Nc1ccc(-c2nnc(-c3cccc(N4CCOCC4)n3)[nH]2)c(N2CCC3(CC2)CC3)c1 [Compound 2, N-(4-(5-(6-morpholinopyridin-2-yl)-4H-1,2,4-triazol-3-yl)-3-(6-azaspiro[2.5]octan-6-yl)phenyl)methanesulfonamide] | 0.014 | 0.13 | 0.48 | – | 3890 | 3.61e-05 | 0.0089 | 5.5 | – | – | – |
| Cc1cc(-n2cc(-c3ccc(NS(=O)(=O)CCO)cc3N3CCC4(CC3)CC4)nn2)nc(N2CCC(F)(F)CC2)n1 [Compound 87, N-(4-(1-(2-(4,4-difluoropiperidin-1-yl)-6-methylpyrimidin-4-yl)-1H-1,2,3-triazol-4-yl)-3-(6-azaspiro[2.5]octan-6-yl)phenyl)-2-hydroxyethane-1-sulfonamide] | 0.027 | 0.043 | 0.09 | 0.049 | – | – | – | – | – | – | – |
| Cc1cc(-c2cn(-c3ccc(NS(=O)(=O)CCO)cc3N3CCC4(CC3)CC4)nn2)nc(N2CCCCC2)n1 [Compound 101, 2-hydroxy-N-(4-(4-(6-methyl-2-(piperidin-1-yl)pyrimidin-4-yl)-1H-1,2,3-triazol-1-yl)-3-(6-azaspiro[2.5]octan-6-yl)phenyl)ethane-1-sulfonamide] | 0.017 | 0.016 | 0.027 | 0.027 | – | – | – | – | – | – | – |
| O=S(=O)(CCO)Nc1ccc(-c2cn(-c3cccc(N4CCC(F)(F)CC4)n3)nn2)c(N2CCC3(CC2)CC3)c1 [Compound 71, N-(4-(1-(6-(4,4-difluoropiperidin-1-yl)pyridin-2-yl)-1H-1,2,3-triazol-4-yl)-3-(6-azaspiro[2.5]octan-6-yl)phenyl)-2-hydroxyethane-1-sulfonamide] | 0.01 | 0.012 | 0.02 | 0.013 | – | – | – | – | – | – | – |
| O=S(=O)(CCO)Nc1ccc(-n2cc(-c3ccc(F)c(N4CCC(F)(F)CC4)n3)nn2)c(N2CCC3(CC2)CC3)c1 [Compound 79, N-(4-(4-(6-(4,4-difluoropiperidin-1-yl)-5-fluoropyridin-2-yl)-1H-1,2,3-triazol-1-yl)-3-(6-azaspiro[2.5]octan-6-yl)phenyl)-2-hydroxyethane-1-sulfonamide] | 0.015 | 0.0054 | 0.0078 | 0.0083 | – | – | – | – | – | – | – |
| Cc1cc(-c2cn(-c3ccc(NS(=O)(=O)CCO)cc3N3CCC(C)CC3)nn2)nc(N2CCC(F)(F)CC2)n1 [Compound 89, N-(4-(4-(2-(4,4-difluoropiperidin-1-yl)-6-methylpyrimidin-4-yl)-1H-1,2,3-triazol-1-yl)-3-(4-methylpiperidin-1-yl)phenyl)-2-hydroxyethane-1-sulfonamide] | 0.021 | 0.034 | 0.048 | 0.051 | – | – | – | – | – | – | – |
| CS(=O)(=O)Nc1ccc(-c2cn(-c3cccc(N4CCC(F)(F)CC4)n3)nn2)c(N2CCC3(CC2)CC3)c1 [Compound 29, N-(4-(1-(6-(4,4-difluoropiperidin-1-yl)pyridin-2-yl)-1H-1,2,3-triazol-4-yl)-3-(6-azaspiro[2.5]octan-6-yl)phenyl)methanesulfonamide] | 0.018 | 0.025 | 0.023 | 0.021 | – | – | – | – | – | – | – |
| O=S(=O)(CCO)Nc1ccc(-n2cc(-c3cccc(OC4CCCC4)n3)nn2)c(N2CCC3(CC2)CC3)c1 [Compound 100, N-(4-(4-(6-(cyclopentyloxy)pyridin-2-yl)-1H-1,2,3-triazol-1-yl)-3-(6-azaspiro[2.5]octan-6-yl)phenyl)-2-hydroxyethane-1-sulfonamide] | 0.011 | 0.045 | 0.06 | 0.08 | – | – | – | – | – | – | – |
| CS(=O)(=O)Nc1ccc(-n2cc(-c3cccc(S(=O)(=O)N4CC(F)(F)C4)c3)nn2)c(N2CCC3(CC2)CC3)c1 [Compound 13, N-(4-(4-(3-((3,3-difluoroazetidin-1-yl)sulfonyl)phenyl)-1H-1,2,3-triazol-1-yl)-3-(6-azaspiro[2.5]octan-6-yl)phenyl)methanesulfonamide] | 0.0072 | 0.003 | 0.0047 | 0.0045 | – | – | – | – | – | – | – |
| CCS(=O)(=O)Nc1ccc(-n2cc(-c3cccc(N4CC(F)(F)C4)n3)nn2)c(N2CCC3(CC2)CC3)c1 [Compound 61, N-(4-(4-(6-(3,3-difluoroazetidin-1-yl)pyridin-2-yl)-1H-1,2,3-triazol-1-yl)-3-(6-azaspiro[2.5]octan-6-yl)phenyl)ethanesulfonamide] | 0.008 | 0.015 | 0.015 | 0.016 | – | – | – | – | – | – | – |
| O=S(=O)(CCO)Nc1ccc(-c2cn(-c3cncc(N4CCC(F)(F)CC4)n3)nn2)c(N2CCC3(CC2)CC3)c1 [Compound 96, N-(4-(1-(6-(4,4-difluoropiperidin-1-yl)pyrazin-2-yl)-1H-1,2,3-triazol-4-yl)-3-(6-azaspiro[2.5]octan-6-yl)phenyl)-2-hydroxyethane-1-sulfonamide] | 0.0044 | 0.017 | 0.044 | 0.028 | – | – | – | – | – | – | – |
| Cc1cc(-c2cn(-c3ccc(NS(=O)(=O)CCO)cc3N3CCC4(CC3)CC4)nn2)nc(N2CCC(F)(F)CC2)c1 [Compound 72, N-(4-(4-(6-(4,4-difluoropiperidin-1-yl)-4-methylpyridin-2-yl)-1H-1,2,3-triazol-1-yl)-3-(6-azaspiro[2.5]octan-6-yl)phenyl)-2-hydroxyethane-1-sulfonamide] | – | 0.016 | 0.024 | 0.025 | – | – | – | – | – | – | – |
| CCS(=O)(=O)Nc1ccc(-c2cn(-c3cccc(S(=O)(=O)NC(C)(C)C)c3)nn2)c(N2CCC3(CC2)CC3)c1 [Compound 110, N-(tert-butyl)-3-(4-(4-(ethylsulfonamido)-2-(6-azaspiro[2.5]octan-6-yl)phenyl)-1H-1,2,3-triazol-1-yl)benzenesulfonamide] | 0.015 | 0.0033 | 0.0068 | 0.0044 | – | – | – | – | – | – | – |
| Cc1cc(-c2cn(-c3ccc(NS(=O)(=O)CCO)cc3N3CCC4(CC3)CC4)nn2)nc(N2CC3C(C2)C3(F)F)n1 (stereo not shown) [Compound 73, N-(4-(4-(2-(6,6-difluoro-3-azabicyclo[3.1.0]hexan-3-yl)-6-methylpyrimidin-4-yl)-1H-1,2,3-triazol-1-yl)-3-(6-azaspiro[2.5]octan-6-yl)phenyl)-2-hydroxyethane-1-sulfonamide] | 0.011 | 0.01 | 0.042 | 0.014 | – | – | – | – | – | – | – |
| Cc1cc(NC(=O)c2ccc(NS(=O)(=O)CCO)cc2N2CCC3(CC2)CC3)nc(N2CCC(F)(F)CC2)n1 [AMG650, 2-(6-azaspiro[2.5]octan-6-yl)-N-[2-(4,4-difluoropiperidin-1-yl)-6-methylpyrimidin-4-yl]-4-(2-hydroxyethanesulfonamido)benzamide, reference compound] | – | – | – | – | – | – | – | – | 0.066 | 0.13 | 0.1 |
